{"source": "patent US20080200563A1", "about": "“Use of Compounds Containing Thiol Groups as Efflux Pump Inhibitors” (ThioMatrix Forschungs- und Beratungs- GmbH, priority 2004, published 2008)", "molecular_target": "T1, efflux pump P-glycoprotein (Cavia porcellus, UniProt H0VLE6)", "T1 construct": "The small intestine of guinea pigs was immediately removed after sacrificing animals, cut lengthwise and rinsed; from tissue; host or cells: guinea pig small intestinal mucosa mounted in Ussing chambers", "T1 sequence (H0VLE6 1-1243)": "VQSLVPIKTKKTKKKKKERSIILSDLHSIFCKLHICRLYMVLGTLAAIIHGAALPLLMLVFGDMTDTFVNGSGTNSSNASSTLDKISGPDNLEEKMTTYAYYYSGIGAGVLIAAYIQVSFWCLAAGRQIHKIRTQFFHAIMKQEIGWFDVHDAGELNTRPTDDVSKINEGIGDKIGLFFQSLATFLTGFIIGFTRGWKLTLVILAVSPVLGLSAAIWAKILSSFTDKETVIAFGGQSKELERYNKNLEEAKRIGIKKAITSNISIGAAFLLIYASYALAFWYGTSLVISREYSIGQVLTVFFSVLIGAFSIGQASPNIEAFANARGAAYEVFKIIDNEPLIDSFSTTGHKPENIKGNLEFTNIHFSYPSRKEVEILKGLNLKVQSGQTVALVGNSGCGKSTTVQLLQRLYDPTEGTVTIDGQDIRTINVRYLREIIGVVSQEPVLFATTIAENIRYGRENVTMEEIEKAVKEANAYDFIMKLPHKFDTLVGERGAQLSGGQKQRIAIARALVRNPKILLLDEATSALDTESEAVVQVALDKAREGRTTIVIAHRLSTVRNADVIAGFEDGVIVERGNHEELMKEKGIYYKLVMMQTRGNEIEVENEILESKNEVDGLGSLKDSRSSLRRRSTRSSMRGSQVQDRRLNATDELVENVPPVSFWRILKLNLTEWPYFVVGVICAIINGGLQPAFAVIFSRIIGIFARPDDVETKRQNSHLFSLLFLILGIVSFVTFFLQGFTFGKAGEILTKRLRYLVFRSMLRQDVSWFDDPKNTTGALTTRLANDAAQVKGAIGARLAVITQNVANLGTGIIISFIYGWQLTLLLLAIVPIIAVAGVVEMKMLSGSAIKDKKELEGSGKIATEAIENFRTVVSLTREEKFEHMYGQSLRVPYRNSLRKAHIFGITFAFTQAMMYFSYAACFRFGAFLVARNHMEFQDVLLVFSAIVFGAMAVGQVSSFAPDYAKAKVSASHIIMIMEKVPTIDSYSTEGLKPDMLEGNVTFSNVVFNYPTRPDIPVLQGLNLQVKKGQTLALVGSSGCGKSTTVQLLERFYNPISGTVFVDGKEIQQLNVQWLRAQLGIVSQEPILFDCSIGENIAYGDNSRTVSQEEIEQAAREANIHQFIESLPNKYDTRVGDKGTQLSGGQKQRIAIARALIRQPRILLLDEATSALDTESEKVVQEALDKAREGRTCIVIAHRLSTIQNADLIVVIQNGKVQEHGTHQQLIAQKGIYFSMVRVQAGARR", "test": "Permeation studies with rhodamine 123 across guinea pig small intestinal mucosa in Ussing chambers (efflux pump inhibition)", "type": "in vitro ADME", "conditions": "0.5% (m/v)", "protocol": "The small intestine of guinea pigs was immediately removed after sacrificing animals, cut lengthwise and rinsed with sterile 0.9% sodium chloride solution. Thereafter it was mounted in Ussing chambers. The incubation medium was a 50 mM Bis-Tris (bis[2-hydroxyethyl]imino-tris[hydroxymethyl]methane) pH 6.0 buffer containing 250 mM NaCl, 2.6 mM MgSO4, 10 mM KCl, 40 mM glucose and 50 mM NaHCO3. […] J Pharm Sei. […] At predetermined time points samples were withdrawn from the acceptor chamber—facing to the basolateral site of the mucosa and replaced by fresh incubation medium. […] In addition all permeation studies described above were also performed with the mucosa being mounted in the opposite direction, so that the donor compartment is facing the basolateral site of the mucosa. In parallel, the same experiments were performed with the only difference that the donor- and acceptor compartment contained additionally glutathione in a concentration of 0.5%.\nIn order to compare the inhibitory effect of glutathione and/or polythiol-compounds with well-known inhibitors on efflux pumps of the gastrointestinal mucosa, they were tested in parallel.", "data": [{"smiles": "N[C@@H](CCC(=O)N[C@@H](CS)C(=O)NCC(=O)O)C(=O)O", "note": "[Glutathione, glutathione]", "values": [{"measurement": "effect on rhodamine permeation at 4° C. compared with 37° C.", "setting": "4° C.", "value": "dramatically lower effect"}, {"measurement": "permeation of rhodamine in the absorptive direction in the presence of the compound", "setting": "37° C., apical to basolateral", "value": "significantly improved"}, {"measurement": "permeation of rhodamine in the secretory direction in the presence of the compound", "setting": "37° C., basolateral to apical", "value": "significantly reduced"}, {"measurement": "efflux pump inhibitory effect", "setting": "37° C., p<0.05, rhodamine 123", "value": "statistically significant"}]}]}
